Reference: patent US10758534B2 (Vertex Pharmaceuticals Incorporated, priority 2014, dated 2020)

Target: T1, F508del (Homo sapiens, UniProt P13569, DEL508-508)
T1 construct: expressed in transfected cells
Test: Protocol 2: FRET membrane potential optical assay (VIPR), identification of correction compounds
Type: cell-based
Details: F508del CFTR modulator activity; compounds of Table 1; read-out: EC30
In short: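 NIH3T3 mouse fibroblasts stably expressing F508del were treated with test compound for 16 hrs at 37° C. in serum-free medium; 27° C. incubation served as positive control. F508del was activated with 10 μM forskolin plus 20 μM genistein in Cl^−-free medium, and Cl^− efflux-driven depolarization was read by DiSBAC2(3)/CC2-DMPE FRET.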

T1 sequence (P13569 with tags, fused parts or gaps DEL508-508): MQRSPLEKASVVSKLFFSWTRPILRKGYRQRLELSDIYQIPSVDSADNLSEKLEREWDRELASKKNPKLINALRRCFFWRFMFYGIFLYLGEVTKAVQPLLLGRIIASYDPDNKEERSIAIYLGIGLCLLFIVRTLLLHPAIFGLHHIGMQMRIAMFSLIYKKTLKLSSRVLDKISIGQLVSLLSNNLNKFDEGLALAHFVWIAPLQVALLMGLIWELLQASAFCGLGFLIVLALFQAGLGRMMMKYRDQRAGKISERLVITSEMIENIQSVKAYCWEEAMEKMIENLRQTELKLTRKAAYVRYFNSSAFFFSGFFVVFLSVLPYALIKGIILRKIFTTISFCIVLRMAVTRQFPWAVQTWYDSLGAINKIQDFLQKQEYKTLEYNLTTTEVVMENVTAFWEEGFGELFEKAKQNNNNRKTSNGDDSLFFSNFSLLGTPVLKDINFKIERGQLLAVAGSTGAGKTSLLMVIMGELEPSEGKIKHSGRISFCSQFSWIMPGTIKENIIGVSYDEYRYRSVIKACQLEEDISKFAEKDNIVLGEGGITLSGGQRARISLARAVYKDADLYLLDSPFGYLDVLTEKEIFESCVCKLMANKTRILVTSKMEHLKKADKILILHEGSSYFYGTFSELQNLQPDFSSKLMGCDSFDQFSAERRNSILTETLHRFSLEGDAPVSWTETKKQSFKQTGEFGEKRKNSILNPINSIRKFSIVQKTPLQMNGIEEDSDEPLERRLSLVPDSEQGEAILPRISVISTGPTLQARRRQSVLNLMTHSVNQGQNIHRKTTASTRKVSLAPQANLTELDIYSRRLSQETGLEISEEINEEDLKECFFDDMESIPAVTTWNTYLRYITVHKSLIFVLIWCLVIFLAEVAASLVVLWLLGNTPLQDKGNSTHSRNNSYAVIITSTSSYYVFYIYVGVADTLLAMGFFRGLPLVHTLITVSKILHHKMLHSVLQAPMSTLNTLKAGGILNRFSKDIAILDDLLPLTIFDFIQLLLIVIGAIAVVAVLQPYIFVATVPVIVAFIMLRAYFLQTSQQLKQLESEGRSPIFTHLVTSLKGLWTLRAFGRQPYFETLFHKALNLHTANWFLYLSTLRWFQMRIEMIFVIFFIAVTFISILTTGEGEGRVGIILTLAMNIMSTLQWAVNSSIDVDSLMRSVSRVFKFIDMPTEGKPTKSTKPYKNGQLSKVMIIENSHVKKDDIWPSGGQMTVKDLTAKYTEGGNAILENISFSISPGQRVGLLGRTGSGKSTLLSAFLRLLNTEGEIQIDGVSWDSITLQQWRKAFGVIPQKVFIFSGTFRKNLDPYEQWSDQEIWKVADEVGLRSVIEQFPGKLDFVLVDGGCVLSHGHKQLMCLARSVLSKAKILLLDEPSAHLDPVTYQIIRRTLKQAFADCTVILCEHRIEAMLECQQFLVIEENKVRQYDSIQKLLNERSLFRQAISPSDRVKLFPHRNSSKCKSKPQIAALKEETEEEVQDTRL

EC30 [µM]	SMILES
< 3	CC1CN(c2ncccc2C(=O)NS(=O)(=O)c2cccc(Nc3ccc4c(c3)OCCO4)n2)C(C)(C)C1 (stereo not shown) [Compound 2190, N—[[6-(2,3-dihydro-1,4-benzodioxin-6-ylamino)-2-pyridyl]sulfonyl]-2-(2,2,4-trimethylpyrrolidin-1-yl)pyridine-3-carboxamide]
< 3	CC(CO)COc1ccn(-c2ccc(C(=O)NS(=O)(=O)c3cccnc3N)c(N3C[C@@H](C)CC3(C)C)n2)n1 (stereo partly drawn) [Compound 2192, N-[(2-amino-3-pyridyl)sulfonyl]-6-[3-(3-hydroxy-2-methyl-propoxy)pyrazol-1-yl]-2-[(4S)-2,2,4-trimethylpyrrolidin-1-yl]pyridine-3-carboxamide]
< 3	CC1CN(c2ncccc2C(=O)NS(=O)(=O)c2cccc(Nc3ccc4c(ccn4C)c3)n2)C(C)(C)C1 (stereo not shown) [Compound 2193, N—[[6-[(1-methylindol-5-yl)amino]-2-pyridyl]sulfonyl]-2-(2,2,4-trimethylpyrrolidin-1-yl)pyridine-3-carboxamide]
< 3	COc1ccc(OC)c(-c2ccc(C(=O)NS(=O)(=O)c3cccnc3N)c(N3C[C@@H](C)CC3(C)C)n2)c1 [Compound 2195, N-[(2-amino-3-pyridyl)sulfonyl]-6-(2,5-dimethoxyphenyl)-2-[(4S)-2,2,4-trimethylpyrrolidin-1-yl]pyridine-3-carboxamide]
< 3	COc1ccc2nc(N3C[C@@H](C)CC3(C)C)c(C(=O)NS(=O)(=O)c3cccc(N)n3)cc2c1 [Compound 2196, N-[(6-amino-2-pyridyl)sulfonyl]-6-methoxy-2-[(4S)-2,2,4-trimethylpyrrolidin-1-yl]quinoline-3-carboxamide]
< 3	CCCC(C)Nc1cccc(S(=O)(=O)NC(=O)c2cccnc2N2CC(C)CC2(C)C)n1 (stereo not shown) [Compound 2197, N—[[6-(1-methylbutylamino)-2-pyridyl]sulfonyl]-2-(2,2,4-trimethylpyrrolidin-1-yl)pyridine-3-carboxamide]
< 3	Cc1nc2cc(Nc3cccc(S(=O)(=O)NC(=O)c4cccnc4N4CC(C)CC4(C)C)n3)ccc2s1 (stereo not shown) [Compound 2198, N—[[6-[(2-methyl-1,3-benzothiazol-5-yl)amino]-2-pyridyl]sulfonyl]-2-(2,2,4-trimethylpyrrolidin-1-yl)pyridine-3-carboxamide]
3 to 10	Cc1c(F)cccc1-c1ccc(C(=O)NS(=O)(=O)N2CC[C@H](N)C2)c(N2C[C@@H](C)CC2(C)C)n1 [Compound 2199, N-[(3S)-3-aminopyrrolidin-1-yl]sulfonyl-6-(3-fluoro-2-methyl-phenyl)-2-[(4S)-2,2,4-trimethylpyrrolidin-1-yl]pyridine-3-carboxamide]
3 to 10	CC1CN(c2ncccc2C(=O)NS(=O)(=O)c2cccc(NC(C)C)n2)C(C)(C)C1 (stereo not shown) [Compound 2200, N—[[6-(isopropylamino)-2-pyridyl]sulfonyl]-2-(2,2,4-trimethylpyrrolidin-1-yl)pyridine-3-carboxamide]
< 3	CC1CN(c2ncccc2C(=O)NS(=O)(=O)c2cccc(NC3CCCCCCC3)n2)C(C)(C)C1 (stereo not shown) [Compound 2202, N—[[6-(cyclooctylamino)-2-pyridyl]sulfonyl]-2-(2,2,4-trimethylpyrrolidin-1-yl)pyridine-3-carboxamide]
< 3	Cc1cccc(-c2ccc(C(=O)NS(=O)(=O)c3cccc(N)n3)c(N3C[C@@H](C)CC3(C)C)n2)c1O [Compound 2203, N-[(6-amino-2-pyridyl)sulfonyl]-6-(2-hydroxy-3-methyl-phenyl)-2-[(4S)-2,2,4-trimethylpyrrolidin-1-yl]pyridine-3-carboxamide]
< 3	Cc1ccc(F)c(-c2ccc(C(=O)NS(=O)(=O)c3cccnc3N)c(N3C[C@@H](C)CC3(C)C)n2)c1 [Compound 2205, N-[(2-amino-3-pyridyl)sulfonyl]-6-(2-fluoro-5-methyl-phenyl)-2-[(4S)-2,2,4-trimethylpyrrolidin-1-yl]pyridine-3-carboxamide]
< 3	CC1CN(c2ncccc2C(=O)NS(=O)(=O)c2cccc(NCCOc3ccccc3)n2)C(C)(C)C1 (stereo not shown) [Compound 2206, N—[[6-(2-phenoxyethylamino)-2-pyridyl]sulfonyl]-2-(2,2,4-trimethylpyrrolidin-1-yl)pyridine-3-carboxamide]
< 3	CCOc1ccc(-c2ccc(C(=O)NS(=O)(=O)c3ccc[nH]c3=O)c(N3C[C@@H](C)CC3(C)C)n2)cc1 [Compound 2207, 6-(4-ethoxyphenyl)-N-[(2-oxo-1H-pyridin-3-yl)sulfonyl]-2-[(4S)-2,2,4-trimethylpyrrolidin-1-yl]pyridine-3-carboxamide]
< 3	CC1CN(c2ncccc2C(=O)NS(=O)(=O)c2cccc(N3CCN(c4ccccc4)CC3)n2)C(C)(C)C1 (stereo not shown) [Compound 2208, N—[[6-(4-phenylpiperazin-1-yl)-2-pyridyl]sulfonyl]-2-(2,2,4-trimethylpyrrolidin-1-yl)pyridine-3-carboxamide]
< 3	CC1CN(c2ncc(-c3cc(OC(C)C)ccc3Cl)cc2C(=O)NS(=O)(=O)c2cccc(N)n2)C(C)(C)C1 (stereo not shown) [Compound 2210, N-[(6-amino-2-pyridyl)sulfonyl]-5-(2-chloro-5-isopropoxy-phenyl)-2-(2,2,4-trimethylpyrrolidin-1-yl)pyridine-3-carboxamide]
< 3	CC1CN(c2ncccc2C(=O)NS(=O)(=O)c2cccc(OC3CCC4CCCCC4C3)n2)C(C)(C)C1 (stereo not shown) [Compound 2211, N-[(6-decalin-2-yloxy-2-pyridyl)sulfonyl]-2-(2,2,4-trimethylpyrrolidin-1-yl)pyridine-3-carboxamide]
3 to 10	CC(Oc1nc(N2C[C@@H](C)CC2(C)C)c(C(=O)NS(=O)(=O)c2cccc(N)n2)cc1F)c1ccncc1 (stereo partly drawn) [Compound 2212, N-[(6-amino-2-pyridyl)sulfonyl]-5-fluoro-6-[1-(4-pyridyl)ethoxy]-2-[(4S)-2,2,4-trimethylpyrrolidin-1-yl]pyridine-3-carboxamide]

SMILES	EC30 [µM]
CC(C)COc1ccn(-c2ccc(C(=O)NS(=O)(=O)c3cccnc3N)c(N3C[C@@H](C)CC3(C)C)n2)n1 [Compound 2191, N-[(2-amino-3-pyridyl)sulfonyl]-6-(3-isobutoxypyrazol-1-yl)-2-[(4S)-2,2,4-trimethylpyrrolidin-1-yl]pyridine-3-carboxamide]	< 3
CC(C)COc1cc(F)cc(-c2ccc(C(=O)NS(=O)(=O)c3cccc(N)n3)c(N3CC(C(C)C)CC3(C)C)n2)c1 (stereo not shown) [Compound 2201, N-[(6-amino-2-pyridyl)sulfonyl]-6-(3-fluoro-5-isobutoxy-phenyl)-2-(4-isopropyl-2,2-dimethyl-pyrrolidin-1-yl)pyridine-3-carboxamide]	< 3
CC(C)COc1cc(F)cc(-c2ccc(C(=O)NS(=O)(=O)c3cccc(N)n3)c(N3CCC[C@H]3C(=O)OC(C)(C)C)n2)c1 [Compound 2204, tert-butyl (2S)-1-[3-[(6-amino-2-pyridyl)sulfonylcarbamoyl]-6-(3-fluoro-5-isobutoxy-phenyl)-2-pyridyl]pyrrolidine-2-carboxylate]	< 3
CC(C)COc1cc(F)cc(-c2ccc(C(=O)NS(=O)(=O)N3CC(N)CC(F)(F)C3)c(N3C[C@@H](C)CC3(C)C)n2)c1 (stereo partly drawn) [Compound 2209, N-[(5-amino-3,3-difluoro-1-piperidyl)sulfonyl]-6-(3-fluoro-5-isobutoxy-phenyl)-2-[(4S)-2,2,4-trimethylpyrrolidin-1-yl]pyridine-3-carboxamide]	< 3
